Data taken from patent US8637310B2, “Use of a rock inhibitor to sustain primary human keratinocytes in a proliferative state” (The United States of America, as represented by the …, priority 2008, dated 2014).

Tests used:
[1] = system: human vaginal keratinocytes (HVK); test: Long-term culture / immortalization of primary human vaginal keratinocytes on feeder cells; assay type: cell-based; conditions: 10 μM Y-27632; FIG. 9
Protocol: The HPV18 cell line was established by introducing the HPV18 genome into primary HFKs using the Amaxa human keratinocyte nucleofection system. Primary human cervical keratinocytes (HCKs), human vaginal keratinocytes (HVKs), the HPV18 cell lines and the HPV31 positive cell line (CIN-612 9E) were grown in the presence or absence of 10 μM Y-27632 (Alexis Biochemicals), as indicated. Cells were subcultured by removing the fibroblast feeder cells with versene and keratinocytes were collected by trypsinization. At each pass, 2×10^5 cells were plated on a 10 cm plate of J2 feeder cells. Population doubling was calculated as: PD=3.32(log(# cells harvested/# cells seeded)). Immunodetection

HPV18 = test: HPV DNA replication assay (Southern blot) in transfected primary keratinocytes, HPV18; assay type: cell-based, human papillomavirus
Protocol: (§1) Cloned viral genomes were cleaved with restriction enzymes to separate viral and vector sequences. The genomes were religated at a concentration of 5 μg/ml to favor intramolecular circularization. Prior to electroporation, J2 feeder cells were removed from the keratinocytes by versene treatment and the HFKs were collected by trypsinization. HFKs (1×10^6) were electroporated with 2 μg of re-circularized viral genomic DNA using the Amaxa Nucleofector II electroporator and the Human Keratinocyte Nucleofector Kit. The Amaxa program optimized for cell survival was used according to the manufacturer's specifications. Cells were removed from the cuvettes immediately following electroporation, and seeded onto 10 cm plates containing irradiated feeder cells and F-medium, in the presence or absence of 10 μM Y-27632, as indicated. At various times post-transfection, low molecular weight DNA was isolated by a modified Hirt extraction procedure (Ustav et al., EMBO J. 10:449-457, 1991). For Southern blot analysis, the isolated DNA was linearized with EcoRI or BamHI, depending on cloning site for each viral genome, and DpnI, to digest any unreplicated input DNA. DNA fragments were separated by agarose gel electrophoresis followed by Southern blot hybridization. A ^32P-labeled probe was synthesized from the isolated viral genomic DNA (purified from the vector sequence) by the random prime method and used in Southern hybridizations.

HPV31 [2] = test: HPV DNA replication assay (Southern blot) in transfected primary keratinocytes, HPV31; assay type: cell-based, human papillomavirus; conditions: 10 μM Y-27632; two and five days post-electroporation; FIG. 5
Protocol: as §1, with “A ^32P-labeled probe was synthesized from the isolated viral genomic DNA (purified from the vector sequence) by the random prime method and used in Southern hybridizations.” left out

HPV6 = test: HPV DNA replication assay (Southern blot) in transfected primary keratinocytes, HPV6; assay type: cell-based, human papillomavirus; conditions: 10 μM Y-27632, FIG. 6
Protocol: as §1, with “A ^32P-labeled probe was synthesized from the isolated viral genomic DNA (purified from the vector sequence) by the random prime method and used in Southern hybridizations.” left out

W12 cells (20863 clone) = test: Growth of CIN1-derived cell line W12; assay type: cell-based, human; conditions: 10 μM Y-27632; 44 days; FIG. 7
Protocol: The 9E and […] (20863 clone) cell lines were cultured in F-media on irradiated J2 feeder cells. For the Y-27632 experiments they were cultured in F-medium with or without 10 μM Y-27632 and continually passed for the times indicated.

HPV16 = HPV16 genome copy number in W12 cells; assay type: cell-based, human papillomavirus; conditions: 10 μM Y-27632, FIG. 8
Protocol: (§2) The 9E and W12 (20863 clone) cell lines were cultured in F-media on irradiated J2 feeder cells. For the Y-27632 experiments they were cultured in F-medium with or without 10 μM Y-27632 and continually passed for the times indicated.
as §1, with “DNA fragments were separated by agarose gel electrophoresis followed by Southern blot hybridization. A ^32P-labeled probe was synthesized from the isolated viral genomic DNA (purified from the vector sequence) by the random prime method and used in Southern hybridizations.” left out

HPV31 [3] = test: HPV31 genome copy number in CIN612 9E cells; assay type: cell-based, human papillomavirus; conditions: 10 μM Y-27632, FIG. 8
Protocol: as §2
as §1, with “DNA fragments were separated by agarose gel electrophoresis followed by Southern blot hybridization. A ^32P-labeled probe was synthesized from the isolated viral genomic DNA (purified from the vector sequence) by the random prime method and used in Southern hybridizations.” left out

[4] = system: foreskin keratinocyte line (strain a); test: Karyotype analysis of immortalized cells; assay type: cell-based, human; conditions: HFK strain a, 95 passages in Y-27632
Protocol: This was conducted by Molecular Diagnostic Services, Inc. San Diego, Calif. Metaphase spreads were prepared and stained to observe chromosomal G bands.
Twenty metaphase spreads of each cell line was analyzed and five complete karyotypes were prepared from each.

Myc = test: Immunodetection of Myc; assay type: cell-based, human
Protocol: Proteins were extracted in 2% sodium dodecyl sulfate (SDS), 50 mM Tris-HCl (pH 6.8), 10% glycerol supplemented with inhibitors Complete and PhosphoSTOP (Roche, Indianapolis, Ind.). Protein samples were resolved on NuPage gels, electrotransferred to Immobilon-P membrane (Millipore, Billerica, Mass.), and probed with the relevant antibodies before detection by chemiluminescence. Monoclonal antibody against p53 (DO-1) was obtained from Santa Cruz Biotechnology (Santa Cruz, Calif.). Monoclonal antibody against α-tubulin (B-5-1-2) was obtained from Sigma-Aldrich. Polyclonal antibodies against Myc (N-262), p21 (C-19), and p16 (C-20) were obtained from Santa Cruz Biotechnology.

p53 pathway = test: Growth arrest assay (DNA damage response to 0.5 nM actinomycin D); assay type: cell-based, human; conditions: 0.5 nM actinomycin D 24 hours; Y-27632-treated HFKs at P122; FIG. 12B
Protocol: Keratinocytes (1-2×10^6) were seeded on a 10 cm plate. Forty-eight hours later they were treated with 0.5 nM actinomycin D for 24 hours. Protein extracts were prepared, as described above, and analyzed for p53 and p21 protein levels.

keratinocytes = test: Organotypic raft culture (differentiation, stratification); assay type: cell-based, human
Protocol: Organotypic cultures were generated as described previously with modifications. (Banerjee et al., Methods Mol. Med. 119: 187-202, 2005). Briefly, 1×10^5 keratinocytes were seeded onto a rat tail type 1 collagen dermal equivalent containing 1−2×10^6 J2 3T3 feeder cells. The rafts were lifted onto stainless steel grids and were fed by diffusion from below with raft medium [3:1 (v/v) DMEM-F-12 (Ham), 10% FBS, 0.4 μg/ml hydrocortisone, 0.1 nM cholera toxin, and 5 μg/ml transferring]. Raft cultures were allowed to stratify and differentiate for 11-17 days. The collagen-epithelial rafts were fixed in formalin for 4 hours, paraffin embedded, sectioned and stained with hematoxylin and eosin (H&E) or by immunofluorescence as described in Pei et al. (Methods Mol. Med. 119: 49-59, 2005). Monoclonal antibody against anti-keratin 14 (K14) (Ab-1) was from Thermo Fisher Scientific, Fremont, Calif. Goat polyclonal antiserum against Filaggrin (N-20) and rabbit polyclonal antiserum against involucrin (H-120) were from Santa Cruz Biotechnology.

[5] = system: human embryonic stem cells; conditions: cited from earlier work
[6] = system: primary human foreskin keratinocytes; conditions: cited from earlier work

CC(N)[C@H]1CC[C@H](C(=O)Nc2ccncc2)CC1 (single isomer, unassigned; (+)) [Y-27632, (+)-trans-N-(4-Pyridyl)-4-(1-aminoethyl)-cyclohexanecarboxamide]
bypass of senescence [1]: efficiently bypassed senescence with no observed decline in growth rate
cellular proliferation [1]: dramatic increase in cellular proliferation
efficiency of HPV replication (HPV18; 10 μM Y-27632, two and five days post-electroporation, FIG. 5): greatly increased the efficiency of HPV replication up to five days
HPV18 replication, long-term assay (HPV18; after day 10, FIG. 6): greater levels of replication in the absence of Y-27632
HPV18 replication, long-term assay (HPV18; at early times, FIGS. 5 and 6): greater in the presence of Y-27632
efficiency of HPV replication (HPV31 [2]): greatly increased the efficiency of HPV replication up to five days
HPV6 viral DNA levels, long-term assay (HPV6; after three passes): the levels of viral DNA declined
efficiency of HPV6 replication, long-term assay (HPV6; up to three passes): greatly increased the efficiency of replication and robust levels of viral DNA were present after three passes
growth rate (W12 cells (20863 clone)): no differences in growth rate were observed
HPV16 copy number (HPV16): partially rescued the decline in copy number
HPV31 copy number (HPV31 [3]): remained constant
karyotype of immortalized cells [4]: identical to that of the donor cells
Myc protein levels (Myc; immediately after culture with Y-27632, HFK, HCK, HVK, FIG. 12A): induced transiently
level of Myc (Myc; very late passages (p107), FIG. 16): equivalent to that of an HPV31-containing cell line
DNA damage response (p53 and p21 upregulation) (p53 pathway): normal DNA damage response
differentiation and stratification (keratinocytes; 10 μM Y-27632 added to the organotypic raft culture medium): no differentiation or stratification were observed
formation of stratified epithelium (keratinocytes; cells cultured in Y-27632 for 18 passages and late pass, raft media without Y-27632): could also produce a stratified epithelium in organotypic culture
expression of keratin 14, involucrin and filaggrin (keratinocytes; raft tissue from Y-27632-treated cells, immunofluorescence): expressed these differentiation markers in the appropriate layer
survival rate of human embryonic stem cells following cryopreservation ([5]; Li et al. 2008): enhances the survival rate
survival of embryonic stem cells ([5]; Watanabe et al. 2007): greatly increase the survival of embryonic stem cells
colony forming ability [6]: increase the colony forming ability
